According to PubChem BioAssay (NCI):
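Exposure lasted 48 hours, with cells grown in 96-well plates and compounds tested at five concentrations. GI50: concentration for 50% inhibition of growth. TGI: total growth inhibition.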

Assays:
Test in all cases: NCI anticancer screen, dose series, 48 h; in the data active = GI50 below about 0.43 µM; inactive = the rest
[1] = tested on: 786-0 renal
[2] = tested on: A498 renal
[3] = tested on: A549 NSCLC
[4] = tested on: ACHN renal
[5] = tested on: BT-549 breast
[6] = tested on: CAKI-1 renal
[7] = tested on: CCRF-CEM leukemia
[8] = tested on: COLO 205 colon
[9] = tested on: DU-145 prostate
[10] = tested on: EKVX NSCLC
[11] = tested on: HCC-2998 colon
[12] = tested on: HCT-116 colon
[13] = tested on: HCT-15 colon
[14] = tested on: HL-60(TB) leukemia
[15] = tested on: HOP-62 NSCLC
[16] = tested on: HT29 colon
[17] = tested on: IGROV1 ovarian
[18] = tested on: K-562 leukemia
[19] = tested on: KM12 colon
[20] = tested on: LOX IMVI melanoma
[21] = tested on: M14 melanoma
[22] = tested on: MALME-3M melanoma
[23] = tested on: MCF7 breast
[24] = tested on: MDA-MB-231 breast
[25] = tested on: MDA-MB-435
[26] = tested on: MOLT-4 leukemia
[27] = tested on: NCI-H226 lung
[28] = tested on: NCI-H23 lung
[29] = tested on: NCI-H460 lung
[30] = tested on: NCI-H522 lung
[31] = tested on: NCI/ADR-RES ovarian
[32] = tested on: OVCAR-3 ovarian
[33] = tested on: OVCAR-4 ovarian
[34] = tested on: OVCAR-5 ovarian
[35] = tested on: OVCAR-8 ovarian
[36] = tested on: PC-3 prostate
[37] = tested on: RXF 393 renal
[38] = tested on: SF-268 CNS
[39] = tested on: SF-295 CNS
[40] = tested on: SF-539 CNS
[41] = tested on: SK-MEL-2 melanoma
[42] = tested on: SK-MEL-28 melanoma
[43] = tested on: SK-MEL-5 melanoma
[44] = tested on: SK-OV-3 ovarian
[45] = tested on: SNB-19 CNS
[46] = tested on: SNB-75 CNS
[47] = tested on: SW-620 colon
[48] = tested on: T-47D breast
[49] = tested on: TK-10 renal
[50] = tested on: U251 CNS
[51] = tested on: UACC-257 melanoma
[52] = tested on: UACC-62 melanoma
[53] = tested on: UO-31 renal
[54] = tested on: HOP-92 NSCLC
[55] = tested on: HS 578T breast
[56] = tested on: RPMI-8226 leukemia
[57] = tested on: SN12C renal
[58] = tested on: SR leukemia

O=Cc1ccc(-c2ccc(-c3nc4ccccc4s3)cc2)s1
98.3 µM: TGI [32]
> 100 µM: TGI [1] | TGI [2] | TGI [3] | TGI [4] | TGI [5] | TGI [6] | TGI [8] | TGI [9] | TGI [10] | TGI [11] | TGI [12] | TGI [13] | TGI [14] | TGI [15] | TGI [16] | TGI [17] | TGI [18] | TGI [19] | TGI [20] | TGI [21] | TGI [22] | TGI [23] | TGI [25] | TGI [26] | TGI [27] | TGI [28] | TGI [29] | TGI [30] | TGI [31] | TGI [33] | TGI [34] | TGI [35] | TGI [36] | TGI [37] | TGI [38] | TGI [39] | TGI [40] | TGI [41] | TGI [42] | TGI [43] | TGI [44] | TGI [45] | TGI [46] | TGI [47] | TGI [48] | TGI [49] | TGI [50] | TGI [51] | TGI [52] | TGI [53]
inactive: GI50 [1] 51.7 µM | GI50 [2] > 100 µM | GI50 [3] > 100 µM | GI50 [4] 43.5 µM | GI50 [5] 63.8 µM | GI50 [6] 48.2 µM | GI50 [7] 26.5 µM | GI50 [8] > 100 µM | GI50 [9] 73 µM | GI50 [10] 42.1 µM | GI50 [11] > 100 µM | GI50 [12] 35.3 µM | GI50 [13] 39.8 µM | GI50 [14] 34.8 µM | GI50 [15] > 100 µM | GI50 [16] 77.3 µM | GI50 [17] 55.8 µM | GI50 [18] 37.1 µM | GI50 [19] 38.4 µM | GI50 [20] 68.1 µM | GI50 [21] 54.6 µM | GI50 [22] 52.4 µM | GI50 [23] 48.1 µM | GI50 [24] 17.6 µM | GI50 [25] 56.2 µM | GI50 [26] 51.5 µM | GI50 [27] 66.1 µM | GI50 [28] 84.2 µM | GI50 [29] 83.5 µM | GI50 [30] 69.1 µM | GI50 [31] 40.8 µM | GI50 [32] 27.2 µM | GI50 [33] > 100 µM | GI50 [34] > 100 µM | GI50 [35] 80.9 µM | GI50 [36] 28.7 µM | GI50 [37] > 100 µM | GI50 [38] 71.7 µM | GI50 [39] 40.7 µM | GI50 [40] 30.7 µM | GI50 [41] > 100 µM | GI50 [42] > 100 µM | GI50 [43] 27.1 µM | GI50 [44] > 100 µM | GI50 [45] > 100 µM | GI50 [46] > 100 µM | GI50 [47] 56.4 µM | GI50 [48] > 100 µM | GI50 [49] 70.2 µM | GI50 [50] 51.9 µM | GI50 [51] > 100 µM | GI50 [52] 22.2 µM | GI50 [53] 42.7 µM
78.2 µM: TGI [24]
90.7 µM: TGI [7]

Nc1nc(N)c2nc3c(nc2n1)CCCCCCCCCC3
> 100 µM: TGI [1] | TGI [2] | TGI [3] | TGI [4] | TGI [6] | TGI [7] | TGI [8] | TGI [9] | TGI [11] | TGI [12] | TGI [13] | TGI [14] | TGI [15] | TGI [54] | TGI [55] | TGI [17] | TGI [18] | TGI [19] | TGI [20] | TGI [21] | TGI [22] | TGI [23] | TGI [24] | TGI [25] | TGI [26] | TGI [27] | TGI [28] | TGI [29] | TGI [31] | TGI [32] | TGI [33] | TGI [34] | TGI [35] | TGI [36] | TGI [56] | TGI [37] | TGI [38] | TGI [39] | TGI [40] | TGI [42] | TGI [43] | TGI [44] | TGI [57] | TGI [45] | TGI [58] | TGI [47] | TGI [48] | TGI [50] | TGI [51] | TGI [52] | TGI [53]
51.2 µM: TGI [46]
active: GI50 [3] 0.407 µM | GI50 [12] 0.379 µM | GI50 [17] 0.421 µM | GI50 [29] 0.358 µM
inactive: GI50 [1] 0.675 µM | GI50 [2] 6.9 µM | GI50 [4] 2.98 µM | GI50 [6] 3.36 µM | GI50 [7] 6.24 µM | GI50 [8] 6.83 µM | GI50 [9] 2.78 µM | GI50 [11] 3.83 µM | GI50 [13] 0.891 µM | GI50 [14] 1.95 µM | GI50 [15] 4.47 µM | GI50 [54] 3.23 µM | GI50 [55] 3.63 µM | GI50 [18] 0.43 µM | GI50 [19] 8.6 µM | GI50 [20] 0.733 µM | GI50 [21] 0.544 µM | GI50 [22] 4.48 µM | GI50 [23] 2.96 µM | GI50 [24] 6.04 µM | GI50 [25] 0.577 µM | GI50 [26] 3.83 µM | GI50 [27] 19 µM | GI50 [28] 2.86 µM | GI50 [31] 2.4 µM | GI50 [32] 6.15 µM | GI50 [33] > 100 µM | GI50 [34] 1.75 µM | GI50 [35] 1.99 µM | GI50 [36] 5.73 µM | GI50 [56] > 100 µM | GI50 [37] 4.12 µM | GI50 [38] 2.1 µM | GI50 [39] 0.509 µM | GI50 [40] 5.69 µM | GI50 [42] > 100 µM | GI50 [43] 0.652 µM | GI50 [44] 12 µM | GI50 [57] 7.04 µM | GI50 [45] 6.43 µM | GI50 [46] 5.35 µM | GI50 [58] 5.03 µM | GI50 [47] 0.553 µM | GI50 [48] > 100 µM | GI50 [50] 2.71 µM | GI50 [51] 2.4 µM | GI50 [52] 1.39 µM | GI50 [53] 1.88 µM

S=c1sc2c(Cl)nc(-c3cccnc3)nc2n1-c1ccccc1
inactive: GI50 [2] > 100 µM | GI50 [3] > 100 µM | GI50 [6] 1.67 µM | GI50 [15] 3.27 µM | GI50 [54] 3.18 µM | GI50 [55] 4.09 µM | GI50 [30] 1.54 µM | GI50 [31] 3.05 µM | GI50 [34] > 100 µM | GI50 [39] > 100 µM | GI50 [44] > 100 µM | GI50 [58] 0.556 µM | GI50 [49] > 100 µM | GI50 [53] 1.64 µM
3.33 µM: TGI [53]
3.14 µM: TGI [6]
3.1 µM: TGI [30]
> 100 µM: TGI [2] | TGI [3] | TGI [15] | TGI [55] | TGI [31] | TGI [34] | TGI [39] | TGI [44] | TGI [49]
30.5 µM: TGI [54]
4.68 µM: TGI [58]
